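Where inhibition never reached the appropriate level, the endpoint shown equals the highest concentration tested. Otherwise, values were interpolated linearly from a five-concentration, 48-hour dose response in 96-well plates. At the GI50, growth is halved.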 Active and inactive are the calls of the source. Rule as the data show it: active = GI50 up to about 1.1 µM and inactive = higher.
Experiments:
Assay in all cases: NCI anticancer screen, dose series, 48 h
786-0 = test system: 786-0
A498 = test system: A498
CAKI-1 = test system: CAKI-1
COLO 205 = test system: COLO 205
HCC 2998 = test system: HCC 2998
HOP-92 = test system: HOP-92
HT-29 = test system: HT-29
Hs-578T = test system: Hs-578T
IGROV-1 = test system: IGROV-1
NCI-H460 = test system: NCI-H460
NCI/ADR-RES = test system: NCI/ADR-RES
PC-3 = test system: PC-3
SF-539 = test system: SF-539
SK-MEL-28 = test system: SK-MEL-28
SK-MEL-2 = test system: SK-MEL-2
SK-OV-3 = test system: SK-OV-3
SR = test system: SR
UACC-62 = test system: UACC-62

| SMILES | GI50 (786-0) | GI50 (A498) | GI50 (CAKI-1) | GI50 (COLO 205) | GI50 (HCC 2998) | GI50 (HOP-92) | GI50 (HT-29) | GI50 (Hs-578T) | GI50 (IGROV-1) | GI50 (NCI-H460) | GI50 (NCI/ADR-RES) | GI50 (PC-3) | GI50 (SF-539) | GI50 (SK-MEL-28) | GI50 (SK-MEL-2) | GI50 (SK-OV-3) | GI50 (SR) | GI50 (UACC-62) |
| --- | --- | --- | --- | --- | --- | --- | --- | --- | --- | --- | --- | --- | --- | --- | --- | --- | --- | --- |
| O=C(Nc1ccn(C2CCC(COC(c3ccccc3)(c3ccccc3)c3ccccc3)O2)c(=O)n1)c1ccccc1 (stereo unspecified) | 2.64 µM (inactive) | 5 µM (inactive) | 4.51 µM (inactive) | 1.77 µM (inactive) | 11.5 µM (inactive) | 1.86 µM (inactive) | 2.4 µM (inactive) | 3.54 µM (inactive) | 6.04 µM (inactive) | 2.92 µM (inactive) | 2.72 µM (inactive) | 1.5 µM (inactive) | 3.43 µM (inactive) | 9.23 µM (inactive) | 2.48 µM (inactive) | 9.44 µM (inactive) | 2.34 µM (inactive) | 5.5 µM (inactive) |
| COc1ccc2[nH]c(Cl)c(/C=C3/C(=O)N(c4ccccc4)c4ccccc43)c2c1 | 6.37 µM (inactive) | 8.17 µM (inactive) | 10.6 µM (inactive) | 2.18 µM (inactive) | 4.24 µM (inactive) | 13.7 µM (inactive) | 3.98 µM (inactive) | 4.74 µM (inactive) | 4.84 µM (inactive) | 3.55 µM (inactive) | 2.1 µM (inactive) | 3.7 µM (inactive) | 3.03 µM (inactive) | 8.49 µM (inactive) | 2.92 µM (inactive) | 3.5 µM (inactive) | 2.65 µM (inactive) | 5.21 µM (inactive) |
| O=[N+]([O-])C1CC/C(=N/O)c2nonc21 (stereo unspecified) | > 10 µM (inactive) | > 10 µM (inactive) | > 10 µM (inactive) | > 10 µM (inactive) | > 10 µM (inactive) | > 10 µM (inactive) | > 10 µM (inactive) | > 10 µM (inactive) | > 10 µM (inactive) | > 10 µM (inactive) | > 10 µM (inactive) | > 10 µM (inactive) | > 10 µM (inactive) | > 10 µM (inactive) | – | – | > 10 µM (inactive) | > 10 µM (inactive) |
| Cc1cc(C)c2c(O)cc(-c3ccc4ccccc4c3)nc2n1 | 39.8 µM (inactive) | 3.9 µM (inactive) | 54.6 µM (inactive) | 18.3 µM (inactive) | 16.3 µM (inactive) | 11.1 µM (inactive) | 12.1 µM (inactive) | 16.4 µM (inactive) | 12.6 µM (inactive) | 9.84 µM (inactive) | 17.1 µM (inactive) | 10.2 µM (inactive) | 30.8 µM (inactive) | > 47.4 µM (inactive) | 13.6 µM (inactive) | 33.3 µM (inactive) | 5.98 µM (inactive) | 14.7 µM (inactive) |
| Cn1c(=O)cc(NCCc2ccccc2)[nH]c1=O | 41 µM (inactive) | 46 µM (inactive) | 22.8 µM (inactive) | 31.6 µM (inactive) | 27.8 µM (inactive) | > 100 µM (inactive) | 25.5 µM (inactive) | 14.1 µM (inactive) | 38.8 µM (inactive) | 34.2 µM (inactive) | 24.7 µM (inactive) | 13 µM (inactive) | 39.4 µM (inactive) | 67.8 µM (inactive) | 51.1 µM (inactive) | 53.6 µM (inactive) | 9.1 µM (inactive) | 19.9 µM (inactive) |
| CCCCn1c2c(n(CCCC)c1=S)-c1c(n(CCCC)c(=S)n1CCCC)SSc1c(n(CCCC)c(=S)n1CCCC)-c1c(n(CCCC)c(=S)n1CCCC)SSc1c(n(CCCC)c(=S)n1CCCC)-c1c(n(CCCC)c(=S)n1CCCC)SS2 | 3.56 µM (inactive) | > 50 µM (inactive) | 10.2 µM (inactive) | 2.64 µM (inactive) | 12.6 µM (inactive) | 1.65 µM (inactive) | 11.6 µM (inactive) | 3.25 µM (inactive) | 2.43 µM (inactive) | > 31 µM (inactive) | > 50 µM (inactive) | 2.04 µM (inactive) | 4.31 µM (inactive) | 13.6 µM (inactive) | 10.7 µM (inactive) | > 29.2 µM (inactive) | 1.88 µM (inactive) | 3.37 µM (inactive) |
| CO[C@H]1O[C@@H]2OC3(C)CCC4[C@H](C)CCC([C@H]1C)[C@]42OO3 (stereo partly specified) | > 100 µM (inactive) | > 100 µM (inactive) | > 100 µM (inactive) | 28.2 µM (inactive) | > 100 µM (inactive) | > 100 µM (inactive) | > 100 µM (inactive) | > 100 µM (inactive) | > 100 µM (inactive) | > 100 µM (inactive) | 44.2 µM (inactive) | 76 µM (inactive) | > 100 µM (inactive) | > 100 µM (inactive) | > 100 µM (inactive) | > 100 µM (inactive) | 56.2 µM (inactive) | > 100 µM (inactive) |
| CCOC(=O)C1=C(Nc2cccc(OC)c2)OCC1=O | > 100 µM (inactive) | 27.7 µM (inactive) | > 100 µM (inactive) | > 100 µM (inactive) | > 100 µM (inactive) | > 100 µM (inactive) | > 100 µM (inactive) | > 100 µM (inactive) | > 100 µM (inactive) | > 100 µM (inactive) | > 100 µM (inactive) | > 100 µM (inactive) | > 100 µM (inactive) | > 100 µM (inactive) | > 100 µM (inactive) | > 100 µM (inactive) | > 100 µM (inactive) | > 100 µM (inactive) |
| CCCCCNC(=O)c1cc2cc(CCl)ccc2oc1=O | 1.34 µM (inactive) | 1.86 µM (inactive) | 1.21 µM (inactive) | 1.33 µM (inactive) | 1.77 µM (inactive) | 1.95 µM (inactive) | 2.42 µM (inactive) | 6.37 µM (inactive) | 4.71 µM (inactive) | 1.61 µM (inactive) | 16.4 µM (inactive) | 1.33 µM (inactive) | 2.67 µM (inactive) | 9.42 µM (inactive) | 3.1 µM (inactive) | 5.19 µM (inactive) | 5.38 µM (inactive) | 2.45 µM (inactive) |
| C=C1C(=O)OC2CC(C)C(/C=C/C(C)=O)=CCC12 (stereo unspecified) | 26.4 µM (inactive) | > 100 µM (inactive) | > 100 µM (inactive) | 90.6 µM (inactive) | > 100 µM (inactive) | > 100 µM (inactive) | > 100 µM (inactive) | > 100 µM (inactive) | > 100 µM (inactive) | > 100 µM (inactive) | > 100 µM (inactive) | > 100 µM (inactive) | > 100 µM (inactive) | > 100 µM (inactive) | > 100 µM (inactive) | > 100 µM (inactive) | 57.9 µM (inactive) | > 100 µM (inactive) |
| Cc1ccc2nc(/C=N/c3ccc(Cl)cc3)cc(C)c2c1 | 10.6 µM (inactive) | > 80.4 µM (inactive) | 1.38 µM (inactive) | 1.16 µM (inactive) | 0.574 µM (active) | 18.6 µM (inactive) | 2.64 µM (inactive) | 15.8 µM (inactive) | 0.989 µM (active) | 0.729 µM (active) | 3.44 µM (inactive) | 1.9 µM (inactive) | 2.12 µM (inactive) | 13.4 µM (inactive) | 25.8 µM (inactive) | 16.8 µM (inactive) | 1.88 µM (inactive) | 0.133 µM (active) |

Source: ChEMBL document CHEMBL1201862, “PubChem BioAssay data set” (2004)
